Our source for the Controlling value and pest or weed control values is patent publication US7968573B2, “Hydrazide compound and pesticidal use of the same” (Sumitomo Chemical Company, Limited, priority 2008, dated 2011).

One test has as its system cotton aphids. The test can be described thus: Test Example 2: spray on cucumber infested with cotton aphids. The class given is in vivo, Aphis gossypii. The note with it: 500 ppm spray solution, 20 ml/cup on cucumber with about 30 cotton aphids; counted six days after spraying. As to the method:
At the same time, cucumber was planted in a polyethylene cup, and was grown until the first true leaf was developed. About 30 cotton aphids were put on the cucumber. One day after, the test spray solution as described above was sprayed in an amount of 20 ml/cup on the cucumber. Six days after spraying, the number of cotton aphids was counted, and a controlling value was calculated by the following equation: Controlling value(%)={1−(Cb×Tai)/(Cai×Tb)}×100 wherein, Cb: the number of insects in a non-treated section before treatment Cai: the number of insects in a non-treated section on observation Tb: the number of insects in a treated-section before treatment Tai: the number of insects in a treated-section on observation. Furthermore, the same way as Test Example 2, test spray solution of the comparative compound of the formula: […]
With `COC(=O)CNC(=O)c1cccc(C)c1NC(=O)c1cc(C(F)(F)F)nn1-c1ncccc1Cl`, the Controlling value entry is given as “less than 30%”.

The subject of the next test is Frankliniella occidentalis. The test can be described thus: Test Example 5: sprayed cucumber leaf, larvae of Frankliniella occidentalis. The class given is in vivo. The note with it: 168 h; 500 ppm spray solution, 20 ml/cup on cucumber, cut first true leaf; 20 larvae of Frankliniella occidentalis; counted seven days after spraying; read-out: Controlling value. As to the method: At the same time, cucumber was planted in a polyethylene cup, and was grown until the first true leaf was developed. The test spray solution as described above was sprayed in an amount of 20 ml/cup on the cucumber. After the drug solution sprayed on the cucumber was dried, the first true leaf was cut and then placed on a filter paper (diameter: 70 mm) containing water in a polyethylene cup (diameter: 110 mm). On the cucumber leaf, 20 larvae of Frankliniella occidentalis were released, and the polyethylene cup was capped. Seven days after spraying, the number of insects surviving on the cucumber leaf was counted, and a controlling value was calculated by the following equation: Controlling value(%)={1−(Cb×Tai)/(Cai×Tb)}×100 wherein, Cb: the number of insects in a non-treated section before treatment Cai: the number of insects in a non-treated section on observation Tb: the number of insects in a treated-section before treatment Tai: the number of insects in a treated-section on observation.
In the case of `Cc1cc(Cl)cc(C(=O)NNC=O)c1NC(=O)c1cc(C(F)(F)F)nn1-c1ncccc1Cl` [(17)], the pest or weed control at 500 ppm was at least 90%.

In the case of `CN(C)C(=O)NN(C)C(=O)c1cc(Br)cc(Br)c1NC(=O)c1cc(Br)cn1-c1ncccc1Cl` [(206)], the pest or weed control at 500 ppm is at least 90%.

For the compound `COC(=O)NNC(=O)c1cc(Cl)cc(C)c1NC(=O)c1cc(SC)nn1-c1ncccc1Cl` [(99)], the pest or weed control at 500 ppm is at least 90%.

For `COC(=O)N(NC(=O)c1cc(Cl)cc(C)c1NC(=O)c1cc(Cl)c(Cl)n1-c1ncccc1Cl)C(=O)OC` [(167)], the pest or weed control at 500 ppm was at least 90%.

On to `COC(=O)NNC(=O)c1cc2ccccc2c(Br)c1NC(=O)c1cc(Br)nn1-c1ncccc1Cl` [(140)], for which the pest or weed control at 500 ppm was at least 90%.

`COC(=O)NNC(=O)c1c(Cl)ccc(C)c1NC(=O)c1cc(Br)nn1-c1ncccc1Cl` [(88)]: the pest or weed control at 500 ppm was at least 90%.

With `COC(=O)NNC(=O)c1cc(Br)cc(Br)c1NC(=O)c1ccc(S(C)(=O)=O)n1-c1ncccc1Cl` [(226)], the pest or weed control at 500 ppm was at least 90%.

With `COC(=O)NNC(=O)c1ccc(Cl)c(C)c1NC(=O)c1cc(Br)nn1-c1ncccc1Cl` [(85)], the pest or weed control at 500 ppm was at least 90%.

As to `CSC(=O)NNC(=O)c1cc(Cl)cc(C)c1NC(=O)c1cc(C(F)(F)F)nn1-c1ncccc1Cl` [(29)], the pest or weed control at 500 ppm is at least 90%.

Take `COC(=O)NNC(=O)c1cc(Br)cc(Br)c1NC(=O)c1ccc(SC)n1-c1ncccc1Cl` [(227)]: the pest or weed control at 500 ppm was at least 90%.

On to `COC(=O)NNC(=O)c1cc(Cl)cc(I)c1NC(=O)c1cc(Br)nn1-c1ncccc1Cl` [(79)], for which the pest or weed control at 500 ppm is at least 90%.

As for `COC(=O)N(C)N(C)C(=O)c1cc(Cl)cc(Cl)c1NC(=O)c1cc(Br)nn1-c1ncccc1Cl` [(231)], the pest or weed control at 500 ppm was at least 90%.

With `COC(=O)NNC(=O)c1cc([N+](=O)[O-])cc(C)c1NC(=O)c1cc(Br)nn1-c1ncccc1Cl` [(183)], the pest or weed control at 500 ppm was at least 90%.

For the compound `COC(=O)NNC(=O)c1cccc(C(F)(F)F)c1NC(=O)c1cc(Br)nn1-c1ncccc1Cl` [(81)], the pest or weed control at 500 ppm was at least 90%.

Turning to `COC(=O)N(NC(=O)c1cc(Cl)cc(C)c1NC(=O)c1cc(Cl)cn1-c1ncccc1Cl)C(=O)OC` [(159)], the pest or weed control at 500 ppm is at least 90%.

Turning to `COC(=O)NNC(=O)c1cc(Cl)cc(C)c1NC(=O)c1cc(Br)cn1-c1ccncc1Cl` [(187)], the pest or weed control at 500 ppm was at least 90%.

Turning to `CC(=O)NNC(=O)c1cc(Cl)cc(C)c1NC(=O)c1cc(C(F)(F)F)nn1-c1ncccc1Cl` [(27)], the pest or weed control at 500 ppm is at least 90%.

Another test concerns silver leaf whitefly. The test is described as follows: Test Example 6: spray on cabbage with hatched larvae of silver leaf whitefly. It counts as in vivo. The note with it: Bemisia argentifolii, 168 h; 500 ppm spray solution, 20 ml/cup on cabbage with hatched larvae of silver leaf whitefly; counted seven days after spraying; read-out: Controlling value. As to the method: At the same time, cabbage was planted in a polyethylene cup, and grown until the first true leaf was developed. All leaves excluding the first true leaf were cut off. On the first true leaf, imagoes of silver leaf whitefly were released and allowed to lay eggs for about 24 hours. The cabbage was retained in a greenhouse for 8 days. When larvae hatched from the laid eggs, the test spray solution as described above was sprayed in an amount of 20 ml/cup to the cabbage. Seven days after spraying, the number of larvae surviving on the cabbage was counted, and a controlling value was calculated by the following equation: Controlling value(%)={1−(Cb×Tai)/(Cai×Tb)}×100 wherein, Cb: the number of worms in a non-treated section before treatment Cai: the number of worms in a non-treated section on observation Tb: the number of worms in a treated-section before treatment Tai: the number of worms in a treated-section on observation.
As to `Cc1cc(Cl)cc(C(=O)NNC(=O)OCCF)c1NC(=O)c1cc(Br)nn1-c1ncccc1Cl` [(221)], the pest or weed control at 500 ppm is at least 90%.

As to `COC(=O)NNC(=O)c1cc(Cl)cc(Cl)c1NC(=O)c1cc(C(F)(F)F)nn1-c1ncccc1Cl` [(56)], the pest or weed control at 500 ppm was at least 90%.

For the compound `COC(=O)NNC(=O)c1cc(Cl)cc(C)c1NC(=O)c1cc(Cl)cn1-c1ncccc1Cl` [(153)], the pest or weed control at 500 ppm was at least 90%.

In the case of `COC(=O)NNC(=O)c1cc(Cl)cc(C)c1NC(=O)c1ccc(Cl)n1-c1ncccc1Cl` [(129)], the pest or weed control at 500 ppm is at least 90%.

For the compound `COC(=O)NNC(=O)c1cc(Cl)cc(C)c1NC(=O)c1cc(C(F)(F)F)nn1-c1ncccc1Cl` [(5)], the pest or weed control at 500 ppm is at least 90%.

On to `COC(=O)NNC(=O)c1cc(Cl)cc(Br)c1NC(=O)c1cc(C(F)(F)F)nn1-c1ncccc1Cl` [(59)], for which the pest or weed control at 500 ppm is at least 90%.

Take `COC(=O)NNC(=O)c1cc(Cl)cc(C)c1NC(=O)c1cc(Br)cn1-c1ncccc1Cl` [(93)]: the pest or weed control at 500 ppm was at least 90%.

In the case of `COC(=O)NNC(=O)c1cc(Cl)cc(C)c1NC(=O)c1cc(Br)nn1-c1ncccc1Cl` [(34)], the pest or weed control at 500 ppm was at least 90%.

On to `CCOC(=O)NNC(=O)c1cccc(C)c1NC(=O)c1cc(C(F)(F)F)nn1-c1ncccc1Cl` [(32)], for which the pest or weed control at 500 ppm is at least 90%.

In the case of `COC(=O)NNC(=O)c1cc(Br)cc(Br)c1NC(=O)c1ccc(S(C)(=O)=O)n1-c1ncccc1Cl` [(226)], the pest or weed control at 500 ppm is at least 90%.

`COC(=O)N(C)NC(=O)c1cc(Br)cc(Br)c1NC(=O)c1cc(Br)cn1-c1ncccc1Cl` [(209)]: the pest or weed control at 500 ppm is at least 90%.

Take `C#CCOC(=O)NNC(=O)c1cc(Br)cc(Br)c1NC(=O)c1cc(Br)cn1-c1ncccc1Cl` [(223)]: the pest or weed control at 500 ppm is at least 90%.

Turning to `COC(=O)N(C)N(C)C(=O)c1cc(Cl)cc(Cl)c1NC(=O)c1cc(Br)nn1-c1ncccc1Cl` [(231)], the pest or weed control at 500 ppm is at least 90%.

In the case of `COC(=O)N(C)N(C)C(=O)c1cc(Cl)cc(C)c1NC(=O)c1cc(Br)nn1-c1ncccc1Cl` [(119)], the pest or weed control at 500 ppm is at least 90%.

In the case of `COC(=O)N(C)N(C)C(=O)c1cc(C#N)cc(C)c1NC(=O)c1cc(Br)nn1-c1ncccc1Cl` [(144)], the pest or weed control at 500 ppm is at least 90%.

With `COC(=O)N(C)N(C)C(=O)c1cc(Br)cc(Br)c1NC(=O)c1cc(Br)nn1-c1ncccc1Cl` [(204)], the pest or weed control at 500 ppm is at least 90%.

As to `COC(=O)NNC(=O)c1cc(Cl)cc(C)c1NC(=O)c1cc(Br)c(Br)n1-c1ncccc1Cl` [(127)], the pest or weed control at 500 ppm was at least 90%.

For the compound `COC(=O)N(C)NC(=O)c1cc(Cl)cc(C)c1NC(=O)c1cc(Br)nn1-c1ncccc1Cl` [(114)], the pest or weed control at 500 ppm was at least 90%.

Consider `COCCOC(=O)N(NC(=O)c1cc(Cl)cc(C)c1NC(=O)c1cc(Br)nn1-c1ncccc1Cl)C(=O)OC` [(215)], for which the pest or weed control at 500 ppm was at least 90%.

In the case of `COC(=O)N(NC(=O)c1cc(Br)cc(Br)c1NC(=O)c1cc(Br)cn1-c1ncccc1Cl)C(=O)OC` [(201)], the pest or weed control at 500 ppm was at least 90%.

As for `COC(=O)N(NC(=O)c1cc(Cl)cc(Br)c1NC(=O)c1cc(Br)nn1-c1ncccc1Cl)C(=O)OC` [(107)], the pest or weed control at 500 ppm is at least 90%.

For `COC(=O)N(NC(=O)c1cc(Cl)cc(C)c1NC(=O)c1cc(Br)cn1-c1ncccc1Cl)C(=O)OC` [(158)], the pest or weed control at 500 ppm is at least 90%.
